Patent publication US20110301162A1, “AURORA KINASE MODULATORS AND METHODS OF USE” (AMGEN INC., priority 2008, published 2011)

Key:
[1] = target: T1, AuroraB (Homo sapiens, UniProt Q96GD4); assay: AuroraB Homogeneous Time Resolved Fluorescent (HTRF) kinase assay; format: biochemical; details: average; ATP 23 μM; read-out: AurB_IC50_IP (uM Avg)
T1 construct: 20 μL of AuroraB FL His; His
Description: The AuroraB HTRF assay begins with AuroraB in the presence of ATP phosphorylating the biotinylated peptide Histone H3. The reaction incubates for about 90 min. the reaction is quentched by addition of detection reagents, which stop the reaction by diluting out the enzyme and chelating the metals due to the presence of EDTA. After addition, the assay is incubated for about 60 min to allow detection reagents to equilibrate.
The AuroraB HTRF assay comprises 1 μL of compound in 100% DMSO, 20 μL of ATP and biotinylated Histone H3, and 20 μL of AuroraB FL His for a final volume of 41 μL. The final concentration of Histone H3 is 0.1 μM. The final concentration of ATP is 23 μM (Km(app)=23 μM+/−2.6) and the final concentration of AuroraB is 400 pM. Buffer conditions are as follows: 50 mM HEPES pH 7.5, 5 mM NaCl, 0.5 mM MgCl, 0.5 mM MnCl, 2 mM DTT, 0.05% BSA.
(§1) The assay is quenched and stopped with 160 μL of detection reagent. Detection reagents are as follows: Buffer made of 50 mM Tris, pH 7.5, 100 mM NaCl, 3 mM EDTA, 0.05% BSA, 0.1% Tween20. Added to this buffer prior to reading is Steptavidin allophycocyanin (SA-APC) at a final conc in the assay of 0.001 mg/mL, and europilated anti-phosphoHistoneH3 Ab (Eu-anti-HisH3) at a final conc of 0.064 nM.
(§2) The assay plate is read in either a Discovery or a RubyStar. The eu-anti-HisH3 is excited at 320 nm and emits at 615 nm to excite the SA-APC which in turn emits at 655 nm. The ratio of SA-APC at 655 nm (excited due to close proximity to the Eu-anti-HisH3 because of phosphorylation of the peptide) to free Eu-anti-HisH3 at 615 nm will give substrate phosphorylation.
Many of the Examples described herein were tested, and fund to be active compounds. Table I includes related biological data, which may be interpreted using the activity gauge below.

[2] = target: T2, AuroraA-TPX2 (Homo sapiens, UniProt O14965); assay: AuroraA-TPX2 Homogeneous Time Resolved Fluorescent (HTRF) kinase assay; format: biochemical; details: average; ATP about 1 μM; read-out: AurA_IC50_IP (uM Avg)
T2 construct: 20 μL of AuroraA-TPX2 KD GST; GST
T2 sequence (O14965 133-383 limits assumed): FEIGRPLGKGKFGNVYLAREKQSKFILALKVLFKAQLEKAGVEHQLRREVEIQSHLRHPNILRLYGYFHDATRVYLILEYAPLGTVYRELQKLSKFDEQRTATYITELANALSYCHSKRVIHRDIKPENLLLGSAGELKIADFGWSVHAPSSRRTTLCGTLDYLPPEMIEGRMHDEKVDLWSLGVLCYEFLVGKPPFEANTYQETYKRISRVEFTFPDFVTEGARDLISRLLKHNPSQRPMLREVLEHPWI
T2 sequence (Q9ULW0 1-43 partner limits assumed): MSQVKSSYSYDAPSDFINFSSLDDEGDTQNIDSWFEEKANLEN
Description: The Aurora-A HTRF assay begins with Aurora-A in the presence of ATP phosphorylating the biotinylated peptide PLK. The reaction incubates for about 120 min. Detection reagents are added to quench the reaction. These agents stop the reaction by diluting out the enzyme and chelating the metals due to the presence of EDTA. After addition, the assay is incubated overnight to allow the detection reagents to equilibrate.
The AuroraA HTRF assay comprises 1 μL of compound in 100% DMSO, 20 μL of ATP and biotinylated PLK, and 20 μL of AuroraA-TPX2 KD GST for a final volume of about 41 μL. The final concentration of PLK is about 1 μM. The final concentration of ATP is about 1 μM (Km(app)=1 μM+/−0.1) and the final concentration of AuroraA is about 5 nM. Buffer conditions are as follows: 60 mM HEPES pH 7.5, 25mM NaCl, 10 mM MgCl, 2 mM DTT, 0.05% BSA.
as §1, with “0.0005” for “0.001”, “anti-phosphoPLK” for “anti-phosphoHistoneH3”, “(Eu-anti-PLK)” for “(Eu-anti-HisH3)”, “0.02” for “0.064”
as §2, with “eu-anti-PLK” for “eu-anti-HisH3”, “Eu-anti-PLK” for “Eu-anti-HisH3”
Many of the Examples described herein were tested and found to be active compounds. Table I includes related biological data, which may be interpreted using the activity gauge below.

[3] = tested on: HeLa cells; assay: HeLa cell 24 hr ploidy assay; format: cell-based; details: Homo sapiens, 24 hrs treatment, DNA ploidy, average, read-out: 24h_4N Ploidy EC50_IP (uM Avg)
Description: The purpose of this assay is to evaluate the ability of selected individual compounds to induce Deoxyribonucleic acid (DNA) content (ploidy) in cells through failed cell division. Cell cycle analysis is a rapid and efficient way to evaluate the status of DNA content (ploidy) of a given cell. HeLa cells (1×10^4 HeLa cells/well) in 100 ul of media (MEM+10% FBS) were plated in 96-well plates (Packard View) and cultured for 24 hrs at 37° C. maintained in a 5% CO2 atmosphere. The following day, cells were treated for 24 hrs with inhibitor compounds (10 pt. Dose ranging from 0.0024-1.25 umol/L). The compounds were serially diluted in DMSO (0.25% final concentration). The cells were fixed (3.7% Formaldehyde and 1% glutaraldehyde) and permeabilized (1×PBS with 1% BSA an d0.2% Triton X-100) in preparation for nuclear staining. The well plates were stained for 45 minutes at RT in the dark using Hoechest 33342 nuclear stain at 0.5 ug.ml (Stock of 10 mg/ml, Invitrogen, Calif., Cat #H3570). The nuclear stain was removed by aspiration and the cells were washed with wash buffer. A Cellomics Array Scan Vti plate reader was used to acquire the DNA ploidy data of the cells using Cell Cycle bioapplication. Numbers for each of “valid cell count/well”, “% of 4N cells” and “% of >4Ncells” were calculated with the assistance of an Activity Base 5.1ca software and dose curves were generated using an XLFit software. With XLFit, final EC50 IP and EC50 transit values, as well as the Max and Min, were calculated for each curve.

T1 sequence (Q96GD4 whole entry): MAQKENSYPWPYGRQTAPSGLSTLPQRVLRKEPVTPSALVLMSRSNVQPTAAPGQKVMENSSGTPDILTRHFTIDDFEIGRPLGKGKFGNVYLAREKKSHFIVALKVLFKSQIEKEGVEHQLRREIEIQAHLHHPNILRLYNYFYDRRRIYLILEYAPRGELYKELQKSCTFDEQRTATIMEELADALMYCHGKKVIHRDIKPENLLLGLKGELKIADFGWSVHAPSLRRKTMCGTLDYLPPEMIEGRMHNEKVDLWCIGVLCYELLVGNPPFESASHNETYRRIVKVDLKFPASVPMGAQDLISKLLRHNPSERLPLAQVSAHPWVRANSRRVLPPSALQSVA

## CNCCNc1nccc(Sc2ccc(Nc3nnc(-c4ccc(Cl)cc4)c4ccccc34)cc2)n1 [Example 34, N-(4-((4-((4-(4-chlorophenyl)-1-phthalazinyl)amino)phenyl)sulfanyl)-2-pyrimidinyl)-N′-methyl-1,2-ethanediamine]
[1]
  IC50: 0.5 to 1 µM
[2]
  IC50: 1 to 5 µM
[3]
  EC50: 0.1 to 0.5 µM

## Clc1ccc(-c2nnc(Nc3ccc(Oc4ccnc(-c5nc6ccccc6[nH]5)c4)cc3)c3ccccc23)cc1 [Example 38, N-(4-((2-(1H-benzimidazol-2-yl)-4-pyridinyl)oxy)phenyl)-4-(4-chlorophenyl)-1-phthalazinamine]
[1]
  IC50: < 0.1 µM
[2]
  IC50: 0.1 to 0.5 µM
[3]
  EC50: < 0.1 µM

## Cc1ccc(-c2nnc(Nc3ccc(Sc4ccnc(-c5cc6ccccc6[nH]5)n4)cc3)c3ccccc23)cc1N [Example 41, 4-(3-amino-4-methylphenyl)-N-(4-((2-(1H-indol-2-yl)-4-pyrimidinyl)sulfanyl)phenyl)-1-phthalazinamine]
[1]
  IC50: < 0.1 µM
[2]
  IC50: 0.1 to 0.5 µM

## Cc1ccc(-c2nnc(Nc3ccc(Sc4ccnc(-c5cc6ccccc6[nH]5)n4)cc3)c3ccccc23)cn1 [Example 39, N-(4-((2-(1H-indol-2-yl)-4-pyrimidinyl)sulfanyl)phenyl)-4-(6-methyl-3-pyridinyl)-1-phthalazinamine]
[1]
  IC50: < 0.1 µM
[2]
  IC50: 0.1 to 0.5 µM
[3]
  EC50: 0.1 to 0.5 µM

## c1ccc(-c2nnc(Nc3ccc(Sc4ccnc(-c5cc6ccccc6[nH]5)n4)cc3)c3ccccc23)cc1 [Example 42, N-(4-((2-(1H-indol-2-yl)-4-pyrimidinyl)sulfanyl)phenyl)-4-phenyl-1-phthalazinamine]
[1]
  IC50: 0.1 to 0.5 µM
[3]
  EC50: 1 to 5 µM

## CNC(=O)c1cc(Oc2ccc(Nc3nnc(-c4ccc(Cl)cc4)c4ccccc34)cc2)ccn1 [Example 26, 4-((4-((4-(4-chlorophenyl)-1-phthalazinyl)amino)phenyl)oxy)-N-methyl-2-pyridinecarboxamide]
[1]
  IC50: 0.1 to 0.5 µM
[2]
  IC50: 0.1 to 0.5 µM
[3]
  EC50: 0.1 to 0.5 µM

## CNC(=O)c1cc(Sc2ccc(Nc3nnc(-c4ccc(Cl)cc4)c4ccccc34)cc2)ccn1 [Example 25, 4-((4-((4-(4-chlorophenyl)-1-phthalazinyl)amino)phenyl)thio)-N-methyl-2-pyridinecarboxamide]
[1]
  IC50: 0.1 to 0.5 µM
[2]
  IC50: 1 to 5 µM
[3]
  EC50: 0.1 to 0.5 µM

## Cc1csc(-c2nnc(Nc3ccc(Sc4ccnc(-c5cc6ccccc6[nH]5)n4)cc3)c3ccccc23)c1 [Example 37, N-(4-((2-(1H-indol-2-yl)-4-pyrimidinyl)sulfanyl)phenyl)-4-(4-methyl-2-thiophenyl)-1-phthalazinamine]
[1]
  IC50: < 0.1 µM
[2]
  IC50: < 0.1 µM
[3]
  EC50: < 0.1 µM

## CS(=O)(=O)CCNc1cc(Oc2ccc(Nc3nnc(-c4ccc(Cl)cc4)c4ccccc34)cc2)ccn1 [Example 29, 4-(4-chlorophenyl)-N-(4-((2-((2-(methylsulfonyl)ethyl)amino)-4-pyridinyl)oxy)phenyl)-1-phthalazinamine]
[1]
  IC50: 0.1 to 0.5 µM
[2]
  IC50: 0.1 to 0.5 µM
[3]
  EC50: 1 to 5 µM

## OCCNc1nccc(Sc2ccc(Nc3nnc(-c4ccc(Cl)cc4)c4ccccc34)cc2)n1 [Example 32, 2-((4-((4-((4-(4-chlorophenyl)-1-phthalazinyl)amino)phenyl)sulfanyl)-2-pyrimidinyl)amino)ethanol]
[1]
  IC50: < 0.1 µM
[2]
  IC50: < 0.1 µM
[3]
  EC50: < 0.1 µM

## Clc1ccc(-c2nnc(Nc3ccc(Sc4ccnc(/C=C/c5ccccc5)n4)cc3)c3ccccc23)cc1 [Example 35, 4-(4-chlorophenyl)-N-(4-((2-((E)-2-phenylethenyl)-4-pyrimidinyl)sulfanyl)phenyl)-1-phthalazinamine]
[1]
  IC50: < 0.1 µM
[2]
  IC50: 0.1 to 0.5 µM
[3]
  EC50: < 0.1 µM

## CNCCNc1nccc(Sc2ccc(Nc3nnc(-c4ccccc4)c4ccccc34)cc2)n1 [Example 33, N-methyl-N′-(4-((4-((4-phenyl-1-phthalazinyl)amino)phenyl)sulfanyl)-2-pyrimidinyl)-1,2-ethanediamine]
[1]
  IC50: 1 to 5 µM
[3]
  EC50: 1 to 5 µM

## OCCNc1nccc(Sc2ccc(Nc3nnc(-c4ccccc4)c4ccccc34)cc2)n1 [Example 31, 2-((4-((4-((4-phenyl-1-phthalazinyl)amino)phenyl)sulfanyl)-2-pyrimidinyl)amino)ethanol]
[1]
  IC50: < 0.1 µM
[2]
  IC50: 0.1 to 0.5 µM
[3]
  EC50: 0.1 to 0.5 µM

## Clc1ccc(-c2nnc(Nc3ccc(Sc4ccnc(-c5cc6ccccc6[nH]5)n4)cc3)c3ccccc23)cc1 [Example 36, 4-(4-chlorophenyl)-N-(4-((2-(1H-indol-2-yl)-4-pyrimidinyl)sulfanyl)phenyl)-1-phthalazinamine]
[1]
  IC50: < 0.1 µM
[2]
  IC50: < 0.1 µM
[3]
  EC50: < 0.1 µM

## Nc1cc(Sc2ccc(Nc3nnc(-c4ccc(Cl)cc4)c4ccccc34)cc2)ccn1 [Example 27, N-(4-((2-amino-4-pyridinyl)thio)phenyl)-4-(4-chlorophenyl)-1-phthalazinamine]
[1]
  IC50: < 0.1 µM
[2]
  IC50: 0.1 to 0.5 µM
[3]
  EC50: 0.1 to 0.5 µM

## Clc1ccc(-c2nnc(Nc3ccc(Oc4ccnc(/C=C/c5ccccc5)c4)cc3)c3ccccc23)cc1 [Example 40, 4-(4-chlorophenyl)-N-(4-((2-((E)-2-phenylethenyl)-4-pyridinyl)oxy)phenyl)-1-phthalazinamine]
[1]
  IC50: < 0.1 µM
[2]
  IC50: 0.1 to 0.5 µM

## CSc1nccc(Oc2ccc(Nc3nnc(-c4ccccc4)c4ccccc34)cc2)n1 [Example 43, N-(4-((2-(methylthio)-4-pyrimidinyl)oxy)phenyl)-4-phenyl-1-phthalazinamine]
[1]
  IC50: 1 to 5 µM
[3]
  EC50: 0.1 to 0.5 µM
